From patent publication US20250296971A1, “GASTRIC INHIBITORY PEPTIDE RECEPTOR LIGANDS” (priority 2021, published 2025) come the findings set out here.

Where two headings read alike, the source gives them in different places. *1 amine or outer side, *2 acyl side, *3 side chain or, on linkers, in order; H or OH if unused. Where a SMILES comes first, the peptide text is derived from it. Bridges are numbered along the chain shown (N, C = ends). [ ]: non-standard residue; d: D form. The star is where a group is joined. X13 = O=C(CN1CCN2CCN3CCN(CC1)CC(=O)[O][Lu]([O]C(=O)C2)[O]C(=O)C3)NCCCOCCOCCOCCCN*; DOTA(In) = O=C1CN2CCN3CCN(CC(=O)*)CCN(CC2)CC(=O)[O][In]([O]1)[O]C(=O)C3; Trp(5-Cl) = N[C@@H](Cc1c[nH]c2ccc(Cl)cc12)C(=O)O; Pyridine(2,6-diCH2) = c1cc(C[*:1])nc(C[*:2])c1; X6 = c1cc(CSCCN[*:2])nc(C[*:1])c1; X7 = c1cc(CSCCN[*:2])cc(C[*:1])c1; Cya = N[C@@H](CS(=O)(=O)O)C(=O)O; Hyp = O=C(O)[C@@H]1C[C@@H](O)CN1; Suc = O=C(CCC(=O)[*:2])[*:1]; hSer = N[C@@H](CCO)C(=O)O; Api = NC1(C(=O)O)CCNCC1; Thp = NC1(C(=O)O)CCOCC1; Aib = CC(C)(N)C(=O)O

Experiment [1] has as its target T1, human GIP receptor (bioGIPR) (Homo sapiens, UniProt P48546).
T1 construct: Biotinylate extracellular of the human GIP receptor (bioGIPR, Proteros biostructures GmbH, lot #02/2b); purchased Proteros biostructures GmbH lot #02/2b
T1 sequence (P48546 22-138 limits assumed): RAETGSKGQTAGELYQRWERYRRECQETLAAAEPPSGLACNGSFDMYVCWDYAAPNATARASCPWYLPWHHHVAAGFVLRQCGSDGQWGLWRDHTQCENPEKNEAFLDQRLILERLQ
The experiment is described as follows: Surface plasmon resonance (SPR) based binding assay. The note with it: for t1/2 Category: SPR dissociation half-life. The method, boiled down:
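Binding was measured at 25 °C by single-cycle kinetics against a reference flow cell, with blank-run and drift correction, after capturing biotinylated GIPR extracellular domain to ~3500 RU. Running buffer: HBST, 0.1% DMSO. A 1:1 Langmuir model gave kinetic rates, KD, t1/2 and pKD.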
In general terms: In SPR one partner is held on a chip, and binding of the other changes the refractive index at the surface.

In experiment [2] the target is T2, GIPR (CHO-K1-hGIPR cells) (Homo sapiens, UniProt P48546).
T2 construct: host or cells: CHO-K1
T2 sequence (P48546 22-466): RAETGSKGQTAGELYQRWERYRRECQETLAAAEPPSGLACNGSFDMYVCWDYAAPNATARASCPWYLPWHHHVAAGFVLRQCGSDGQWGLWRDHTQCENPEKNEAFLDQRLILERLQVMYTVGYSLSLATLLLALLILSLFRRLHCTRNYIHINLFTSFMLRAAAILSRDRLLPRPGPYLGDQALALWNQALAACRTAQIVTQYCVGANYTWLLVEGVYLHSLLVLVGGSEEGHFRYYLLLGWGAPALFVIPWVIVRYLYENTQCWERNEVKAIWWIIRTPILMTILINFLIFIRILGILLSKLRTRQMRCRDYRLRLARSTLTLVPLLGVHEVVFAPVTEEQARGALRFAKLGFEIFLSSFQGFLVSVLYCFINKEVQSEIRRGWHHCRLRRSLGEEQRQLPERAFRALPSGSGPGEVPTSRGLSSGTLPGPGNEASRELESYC
Nature of the experiment: FACS binding assay. As to conditions: competition with 20 nM GIP-057, 4° C., 1 hour. The method, boiled down: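 CHO-K1 cells expressing human GIPR, washed in PBS/1% FCS, then stained with 1 μg/mL APC-streptavidin for 30 min on ice.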
Background: A flow cytometer gives signals particle by particle.

Setting [3] is: Single Cycle Kinetic mode, 25° C.
Setting [4] is: SPR, Single Cycle Kinetic mode, 25° C., 1:1 Langmuir binding model, read-out: pKD Category (converted).
The mark [5] stands for this setting: read-out: pIC50 Category (converted).

Consider `CC[C@H](C)[C@@H]1NC(=O)[C@H](CC(C)C)NC(=O)C(C)(C)NC(=O)[C@@H](NC(=O)[C@@H](CC(C)C)NC(=O)[C@H](CCC(=O)O)NC(=O)[C@@H]2CCCN2C(=O)[C@H](Cc2c[nH]c3ccc(Cl)cc23)NC(=O)[C@H](Cc2c[nH]c3ccccc23)NC(=O)[C@H](CC(=O)O)NC(=O)CCC(=O)NCCCOCCOCCOCCCNC(=O)CN2CCN3CCN4CCN(CC2)CC(=O)[O][Lu]([O]C(=O)C3)[O]C(=O)C4)CSCc2cccc(c2)CSCCNC1=O` [GIP-167, LuDOTA-Ttds-Asp-Trp-5Clw-Pro-Glu-leu-[Cys(3MeBn)-Aib-Leu-Ile-AET]] ({X13-Suc}-DW[Trp(5-Cl)]PE[dL]C[Aib]LI; linker 7-C via X7), for which the Kd in experiment [1] is < 1 nM. Also, the “t1/2 Category” value in experiment [1] (setting [3]) is reported as “A (t1/2 values>15 min)”. Also, the IC50 in experiment [2] (pIC50 Category) was < 10 nM.

Take `CC[C@H](C)[C@@H]1NC(=O)[C@H](CC(C)C)NC(=O)C2(CCN(C(=O)CN3CCN4CCN5CCN(CC3)CC(=O)[O][In]([O]C(=O)C5)[O]C(=O)C4)CC2)NC(=O)[C@@H](NC(=O)[C@@H](CC(C)C)NC(=O)[C@H](CCC(=O)O)NC(=O)[C@@H]2C[C@@H](O)CN2C(=O)[C@H](Cc2c[nH]c3ccc(Cl)cc23)NC(=O)[C@H](Cc2c[nH]c3ccccc23)NC(=O)CCC(=O)O)CSCc2cccc(n2)CSCCNC1=O` [GIP-169, HO-Succinyl-Trp-5Clw-Hyp-Glu-leu-[Cys(2Lut)-Apc(InDOTA)-Leu-Ile-AET]] (Suc-W[Trp(5-Cl)][Hyp]E[dL]C[Api](DOTA(In))LI; linker 6-C via X6): the Kd in experiment [1] (setting [4]) was < 1 nM. Moreover, the IC50 in experiment [2] (pIC50 Category) was < 10 nM.

As for `CC[C@H](C)[C@@H]1NC(=O)[C@H](CC(C)C)NC(=O)C(C)(C)NC(=O)[C@@H](NC(=O)[C@@H](CC(C)C)NC(=O)[C@H](CCC(=O)O)NC(=O)[C@@H]2C[C@@H](O)CN2C(=O)[C@H](Cc2c[nH]c3ccc(Cl)cc23)NC(=O)[C@H](Cc2c[nH]c3ccccc23)NC(=O)[C@H](CS(=O)(=O)O)NC(C)=O)CSCc2cccc(n2)CSCCNC1=O` [GIP-179, Ac-Cya-Trp-5Clw-Hyp-Glu-leu-[Cys(2Lut)-Aib-Leu-Ile-AET]] (Ac-[Cya]W[Trp(5-Cl)][Hyp]E[dL]C[Aib]LI; linker 7-C via X6), the Kd in experiment [1] (setting [4]) was < 1 nM. In addition, the IC50 in experiment [2] (setting [5]) is < 10 nM.

Regarding `CC[C@H](C)[C@@H]1NC(=O)[C@H](CC(C)C)NC(=O)C2(CCOCC2)NC(=O)[C@@H](NC(=O)[C@@H](CC(C)C)NC(=O)[C@H](CCC(=O)O)NC(=O)[C@@H]2C[C@@H](O)CN2C(=O)[C@H](Cc2c[nH]c3ccc(Cl)cc23)NC(=O)[C@H](Cc2c[nH]c3ccccc23)NC(=O)[C@H](CO)NC(C)=O)CSCc2cccc(n2)CSC[C@@H](C(N)=O)NC1=O` [GIP-188, Ac-Ser-Trp-5Clw-Hyp-Glu-leu-[Cys(2Lut)-Thp-Leu-Ile-Cys]-NH2] (Ac-SW[Trp(5-Cl)][Hyp]E[dL]C[Thp]LIC-NH2; linker 7-11 via Pyridine(2,6-diCH2)), the “t1/2 Category” value in experiment [1] (setting [3]) was “A (t1/2 values>15 min)”. The Kd in experiment [1] (setting [4]) was < 1 nM. Further, the IC50 in experiment [2] (setting [5]) was < 10 nM.

Consider `CC[C@H](C)[C@@H]1NC(=O)[C@H](CC(C)C)NC(=O)C2(CCOCC2)NC(=O)[C@@H](NC(=O)[C@@H](CC(C)C)NC(=O)[C@H](CCO)NC(=O)[C@@H]2C[C@@H](O)CN2C(=O)[C@H](Cc2c[nH]c3ccc(Cl)cc23)NC(=O)[C@H](Cc2c[nH]c3ccccc23)NC(=O)[C@H](CC(=O)O)NC(C)=O)CSCc2cccc(n2)CSC[C@@H](C(N)=O)NC1=O` [GIP-194, Ac-Asp-Trp-5Clw-Hyp-Hse-leu-[Cys(2Lut)-Thp-Leu-Ile-Cys]-NH2] (Ac-DW[Trp(5-Cl)][Hyp][hSer][dL]C[Thp]LIC-NH2; linker 7-11 via Pyridine(2,6-diCH2)), for which the “t1/2 Category” value in experiment [1] (setting [3]) is listed as “A (t1/2 values>15 min)”. Further, in experiment [1] (setting [4]), the Kd was < 1 nM. For the same molecule, the IC50 in experiment [2] (setting [5]) was < 10 nM.
